According to PubChem BioAssay AID1745844 (Carcinogenic Potency Database (CPDB), 2022):
Calls of active or inactive are those of the source. No rule for the calls is given here.

Test system: rodent lifetime carcinogenesis bioassay, tumor incidence TD50
Assay: carcinogenic potency in animals, long-term in vivo studies, CPDB compilation (AID 1745844)

CC(=O)CN(C)N=O
active: TD50 (rat, strain MRC, females, by gavage, site: esophagus, lesion: several types, types named in the paper, dosed 67 weeks, study length 76 weeks) 0.16 mg/kg/day | TD50 (rat, strain MRC, females, by gavage, site: liver, lesion: several types, types named in the paper, dosed 67 weeks, study length 76 weeks) 0.268 mg/kg/day | TD50 (rat, strain MRC, females, by gavage, site: nasal and paranasal cavity, lesion: several types, types named in the paper, dosed 67 weeks, study length 76 weeks) 0.0167 mg/kg/day | TD50 (rat, strain MRC, females, by gavage, site: pharynx, lesion: several types, types named in the paper, dosed 67 weeks, study length 76 weeks) 0.0758 mg/kg/day | TD50 (rat, strain MRC, males, by gavage, site: esophagus, lesion: several types, types named in the paper, dosed 51 weeks, study length 58 weeks) 0.0642 mg/kg/day | TD50 (rat, strain MRC, males, by gavage, site: liver, lesion: several types, types named in the paper, dosed 51 weeks, study length 58 weeks) 0.252 mg/kg/day | TD50 (rat, strain MRC, males, by gavage, site: nasal and paranasal cavity, lesion: several types, types named in the paper, dosed 51 weeks, study length 58 weeks) 0.0178 mg/kg/day | TD50 (rat, strain MRC, males, by gavage, site: pharynx, lesion: several types, types named in the paper, dosed 51 weeks, study length 58 weeks) 0.023 mg/kg/day
0.942 mg/kg/day: TD50 (rat, strain MRC, males, by gavage, site: nasopharynx, lesion: papilloma, dosed 51 weeks, study length 58 weeks)

O=C(O)c1cc(O)c(O)c(O)c1
inactive: carcinogen call (rat, strain F344/DuCrj, males, in feed, site: forestomach, lesion: squamous-cell carcinoma, dosed 60 weeks, study length 60 weeks) negative | carcinogen call (rat, strain F344/DuCrj, males, in feed, site: forestomach, lesion: squamous-cell papilloma, dosed 60 weeks, study length 60 weeks) negative

CC(C)(Oc1ccc(C2CCCc3ccccc32)cc1)C(=O)O (stereo unspecified)
12.3 mg/kg/day: TD50 (rat, strain Wistar, males, in feed, site: any site (literature study), lesion: one or several types, types not named, dosed 59 weeks, study length 59 weeks)
active: TD50 (rat, strain Fischer 344, males, in feed, site: liver, lesion: hepatocellular carcinoma, dosed 108 weeks, study length 108 weeks) 22.4 mg/kg/day | TD50 (rat, strain Fischer 344, males, in feed, site: pancreas, lesion: several types, types named in the paper, dosed 108 weeks, study length 108 weeks) 132 mg/kg/day | TD50 (rat, strain Sprague-Dawley, males, in feed, site: liver, lesion: several types, types named in the paper, dosed 60 weeks, study length 60 weeks) 3.51 mg/kg/day | TD50 (rat, strain Wistar, females, in feed, site: liver, lesion: hepatocellular adenoma, dosed 70 weeks, study length 70 weeks) 55.5 mg/kg/day | TD50 (rat, strain Wistar, females, in feed, site: liver, lesion: hepatocellular carcinoma, dosed 70 weeks, study length 70 weeks) 92.3 mg/kg/day | TD50 (rat, strain Wistar, females, in feed, site: liver, lesion: several types, types named in the paper, dosed 70 weeks, study length 70 weeks) 36.6 mg/kg/day | TD50 (rat, strain Wistar, males, in feed, site: liver, lesion: hepatocellular adenoma, dosed 57 weeks, study length 57 weeks) 38.8 mg/kg/day | TD50 (rat, strain Wistar, males, in feed, site: liver, lesion: hepatocellular carcinoma, dosed 57 weeks, study length 57 weeks) 59.1 mg/kg/day | TD50 (rat, strain Wistar, males, in feed, site: liver, lesion: hepatocellular carcinoma, dosed 59 weeks, study length 59 weeks) 58.1 mg/kg/day | TD50 (rat, strain Wistar, males, in feed, site: liver, lesion: several types, types named in the paper, dosed 57 weeks, study length 57 weeks) 19.8 mg/kg/day | TD50 (rat, strain Wistar, males, in feed, site: liver, lesion: several types, types named in the paper, dosed 59 weeks, study length 59 weeks) 22.1 mg/kg/day
inactive: carcinogen call (hamster, strain Syrian, MB strain, males, in feed, site: liver, lesion: several types, types named in the paper, dosed 60 weeks, study length 60 weeks) negative
48 mg/kg/day: TD50 (rat, strain Wistar, males, in feed, site: liver, lesion: hepatocellular adenoma, dosed 59 weeks, study length 59 weeks)
207 mg/kg/day: TD50 (rat, strain Fischer 344, males, in feed, site: pancreas, lesion: acinar-cell adenoma, dosed 108 weeks, study length 108 weeks)
163 mg/kg/day: TD50 (rat, strain Wistar, females, in feed, site: liver, lesion: hepatocellular carcinoma, dosed 55 weeks, study length 55 weeks) | TD50 (rat, strain Wistar, females, in feed, site: liver, lesion: several types, types named in the paper, dosed 55 weeks, study length 55 weeks)
428 mg/kg/day: TD50 (rat, strain Fischer 344, males, in feed, site: pancreas, lesion: acinar-cell carcinoma, dosed 108 weeks, study length 108 weeks)

CCN(CC)C(=S)[S-].CCN(CC)C(=S)[S-].[Zn+2]
inactive: carcinogen call (mouse, strain B6AKF1, females, oral dosing, site: any site (literature study), lesion: several types, types named in the paper, dosed 76 weeks, study length 76 weeks) negative | carcinogen call (mouse, strain B6AKF1, females, oral dosing, site: liver, lesion: hepatoma, dosed 76 weeks, study length 76 weeks) negative | carcinogen call (mouse, strain B6AKF1, females, oral dosing, site: lung, lesion: adenoma, dosed 76 weeks, study length 76 weeks) negative | TD50 (mouse, strain B6AKF1, males, oral dosing, site: any site (literature study), lesion: several types, types named in the paper, dosed 76 weeks, study length 76 weeks) 86.7 mg/kg/day | TD50 (mouse, strain B6AKF1, males, oral dosing, site: liver, lesion: hepatoma, dosed 76 weeks, study length 76 weeks) 205 mg/kg/day | carcinogen call (mouse, strain B6AKF1, males, oral dosing, site: lung, lesion: adenoma, dosed 76 weeks, study length 76 weeks) negative | carcinogen call (mouse, strain B6C3F1, females, oral dosing, site: any site (literature study), lesion: one or several types, types not named, dosed 76 weeks, study length 76 weeks) negative | carcinogen call (mouse, strain B6C3F1, females, oral dosing, site: liver, lesion: hepatoma, dosed 76 weeks, study length 76 weeks) negative | carcinogen call (mouse, strain B6C3F1, females, oral dosing, site: lung, lesion: several types, types named in the paper, dosed 76 weeks, study length 76 weeks) negative | TD50 (mouse, strain B6C3F1, males, oral dosing, site: any site (literature study), lesion: several types, types named in the paper, dosed 76 weeks, study length 76 weeks) 28.5 mg/kg/day | carcinogen call (mouse, strain B6C3F1, males, oral dosing, site: liver, lesion: hepatoma, dosed 76 weeks, study length 76 weeks) negative | TD50 (mouse, strain B6C3F1, males, oral dosing, site: lung, lesion: adenoma, dosed 76 weeks, study length 76 weeks) 46.2 mg/kg/day

C=CCOc1ccccc1OCC(O)CNC(C)C (stereo unspecified)
inactive: TD50 (mouse, strain CF-1, females, in feed, site: liver, lesion: carcinoma, dosed 78 weeks, study length 91 weeks) 2400 mg/kg/day | carcinogen call (mouse, strain CF-1, females, in feed, site: liver, lesion: one or several types, types not named, dosed 78 weeks, study length 78 weeks) negative | carcinogen call (mouse, strain CF-1, females, in feed, site: lung, lesion: adenoma, dosed 78 weeks, study length 91 weeks) negative | TD50 (mouse, strain CF-1, females, in feed, site: lung, lesion: carcinoma, dosed 78 weeks, study length 78 weeks) 425 mg/kg/day | carcinogen call (mouse, strain CF-1, females, in feed, site: lung, lesion: neurofibrosarcoma, dosed 78 weeks, study length 91 weeks) negative | TD50 (mouse, strain CF-1, males, in feed, site: liver, lesion: carcinoma, dosed 78 weeks, study length 78 weeks) 2620 mg/kg/day | TD50 (mouse, strain CF-1, males, in feed, site: liver, lesion: parenchymal adenoma, dosed 78 weeks, study length 91 weeks) 2120 mg/kg/day | carcinogen call (mouse, strain CF-1, males, in feed, site: lung, lesion: adenoma, dosed 78 weeks, study length 78 weeks) negative | carcinogen call (mouse, strain CF-1, males, in feed, site: lung, lesion: adenoma, dosed 78 weeks, study length 91 weeks) negative | carcinogen call (mouse, strain CF-1, males, in feed, site: lung, lesion: carcinoma, dosed 78 weeks, study length 78 weeks) negative | carcinogen call (rat, strain Charles River CD (Sprague-Dawley), females, in feed, site: liver, lesion: one or several types, types not named, dosed 78 weeks, study length 78 weeks) negative | TD50 (rat, strain Charles River CD (Sprague-Dawley), males, in feed, site: liver, lesion: hepatocellular adenoma, dosed 78 weeks, study length 78 weeks) 1680 mg/kg/day

CC(=O)OC[C@H]1O[C@@](COC(=O)C(C)C)(O[C@H]2O[C@H](COC(C)=O)[C@@H](OC(=O)C(C)C)[C@H](OC(=O)C(C)C)[C@H]2OC(=O)C(C)C)[C@@H](OC(=O)C(C)C)[C@@H]1OC(=O)C(C)C
inactive: carcinogen call (mouse, strain B6C3F1, females, in feed, site: any site (literature study), lesion: several types, types named in the paper, dosed 104 weeks, study length 104 weeks) negative | carcinogen call (mouse, strain B6C3F1, males, in feed, site: any site (literature study), lesion: several types, types named in the paper, dosed 104 weeks, study length 104 weeks) negative | TD50 (rat, strain Fischer 344, females, in feed, site: any site (literature study), lesion: several types, types named in the paper, dosed 52 weeks, study length 52 weeks) 3250 mg/kg/day | carcinogen call (rat, strain Fischer 344, females, in feed, site: any site (literature study), lesion: several types, types named in the paper, dosed 104 weeks, study length 104 weeks) negative | TD50 (rat, strain Fischer 344, females, in feed, site: liver, lesion: hepatocellular adenoma, dosed 52 weeks, study length 52 weeks) 3250 mg/kg/day | carcinogen call (rat, strain Fischer 344, males, in feed, site: any site (literature study), lesion: several types, types named in the paper, dosed 52 weeks, study length 52 weeks) negative | carcinogen call (rat, strain Fischer 344, males, in feed, site: any site (literature study), lesion: several types, types named in the paper, dosed 104 weeks, study length 104 weeks) negative | carcinogen call (rat, strain Fischer 344, males, in feed, site: liver, lesion: one or several types, types not named, dosed 52 weeks, study length 52 weeks) negative
